Experiments:
[1] = tested on: arterial blood pressure; test: Hypotensive effects in the anesthetized dog; format: in vivo; conditions: Canis lupus familiaris, iv, read-out: Hypotensive effect; for inhibition in vivo at 0.01 mg/kg: 10 μg/kg; for inhibition in vivo at 0.03 mg/kg: 30 μg/kg
Method: (§1) Adult mongrel dogs were anesthetized with sodium pentobarbital (30 mg/kg i.v.). Effects of test compounds on arterial blood pressure, coronary arterial blood flow, vertebral blood flow, renal blood flow, left ventricular dp/dt max (dp/dt max) and urine volume were observed. The compounds were administered intravenously (i.v.) or intraduodenally (i.d.).

[2] = tested on: left coronary blood flow; test: Coronary blood flow after injection into left coronary artery of anesthetized dogs; format: in vivo; conditions: intracoronary injection, anesthetized dog; for Increase in CBF ED50: dose to increase CBF by half of the effect of nifedipine (3 μg); for Decrease in CBF ED-50: dose to decrease CBF by 50% from basal value
Method: (§2) Dogs of either sex were anesthetized with sodium pentobarbital (30 mg/kg i.v.). Heparin (500 U/kg i.v.) was administered before making preparation. Under artificial respiration (18 strokes/min, 20 ml/kg tidal volume), left ventricular dp/dt max, and left coronary blood flow were measured (1). Test compounds were injected into the left coronary artery in a volume of 10 or 30 μl. The effects of compounds on coronary blood flow were observed and presented generally as ED50, a dose required to increase coronary blood flow by a half of the effects of nifedipine (3 μg). Similarly, the effects on dp/dt max were observed and shown as ED30, a dose required to increase dp/dt max by 30% of the efffects of isoproterenol (0.1 μg).

[3] = tested on: left ventricular dp/dt max; test: Left ventricular dp/dt max after injection into left coronary artery of anesthetized dogs; format: in vivo; conditions: intracoronary injection, anesthetized dog; dose to increase dp/dt max by 30% of effect of isoproterenol (0.1 μg)
Method: as §2

[4] = tested on: coronary arterial blood flow; test: Coronary vasodilating effects in the anesthetized dog; format: in vivo; conditions: Canis lupus familiaris, iv, read-out: Increase in coronary blood flow; for change in vivo at 0.3 mg/kg: 300 μg/kg; for change in vivo at 0.01 mg/kg: 10 μg/kg; for change in vivo at 0.03 mg/kg: 30 μg/kg
Method: as §1

[5] = tested on: left ventricular dp/dt max; test: Cardiotonic effects in the anesthetized dog; format: in vivo; conditions: Canis lupus familiaris, iv, read-out: Increase in dp/dt max; for change in vivo at 0.3 mg/kg: 300 μg/kg
Method: as §1

[6] = tested on: Rabbit aorta; test: Ca2+-agonistic and antagonistic activity in rabbit aorta; conditions: compound 10^-6 M
Method: Rabbit aorta were isolated and cut into ring segments of about 2 mm. These preparations were suspended in 40 ml chambers filled with Krebs-Henseleit solution bubbled with a gas mixture of 95% O2 +5% CO2 (pH 7.4) and kept at 37° C. The contractile response to [K^+ ]o (9-48 mM) was measured in the absence or presence of test compounds (1).
That is, at lower [K^+ ]o these compounds augmented contractile force, however, at higher [K^+ ]o they produced only relaxation of aorta. [K^+ ]o, at which conversion of the effects of compounds (10^-6 M) occurred, was as follows.

CCOC(=O)C1=C(C)Nc2ccnn2C1c1ccccc1C(F)(F)F (single isomer, unassigned) [(20), 6-Ethoxycarbonyl-5-methyl-7-(2-trifluoromethylphenyl)-4,7-dihydropyrazolo[1,5-a]pyrimidine, optical isomer (-)]
inhibition in vivo at 0.01 mg/kg [1]: 22%

CC1=C(C(=O)OC(CN2CCCCC2)c2ccccc2)C(c2cccc([N+](=O)[O-])c2)n2nccc2N1 (stereo not drawn) [(2), 1-Phenyl-2-piperidinoethyl 5-methyl-7-(3-nitrophenyl)-4,7-dihydropyrazolo[1,5-a]pyrimidine-6-carboxylate (β-form of diastereomer)]
Increase in CBF ED50 [2]: 1.5 µg
Increase in dp/dt max ED30 [3]: > 10 µg
inhibition in vivo at 0.03 mg/kg [1]: 37%

CCCCOC(=O)C1=C(C)Nc2ccnn2C1c1ccccc1C(F)(F)F (stereo not drawn) [(3), 6-Butoxycarbonyl-5-methyl-7-(2-trifluoromethylphenyl)-4,7-dihydropyrazolo[1,5-a]pyrimidine]
change in vivo at 0.1 mg/kg ([4]; 100 μg/kg): 36%
change in vivo at 0.1 mg/kg ([5]; 100 μg/kg): 20%
[K+]o at which conversion of Ca2+-agonistic to Ca2+-antagonistic action occurred [6]: 24 mM

CCOC(=O)C1=C(C)Nc2ccnn2C1c1ccccc1Cl (stereo not drawn) [(4), 7-(2-Chlorophenyl)-6-ethoxycarbonyl-5-methyl-4,7-dihydropyrazolo[1,5-a]pyrimidine]
change in vivo at 0.3 mg/kg [4]: 33%

CCOC(=O)C1=C(CO)Nc2ccnn2C1c1ccccc1C(F)(F)F (stereo not drawn) [(5), 6-Ethoxycarbonyl-5-hydroxymethyl-7-(2-trifluoromethylphenyl)-4,7-dihydropyrazolo[1,5-a]pyrimidine]
change in vivo at 0.3 mg/kg [4]: 43%
change in vivo at 0.3 mg/kg [5]: 20%

CC1=C(C(=O)OCC2CC2)C(c2ccccc2C(F)(F)F)n2nccc2N1 (stereo not drawn) [(6), 6-Cyclopropylmethyloxycarbonyl-5-methyl-7-(2-trifluoromethylphenyl)-4,7-dihydropyrazolo[1,5-a]pyrimidine]
change in vivo at 0.01 mg/kg [4]: 45%

CC1=C(C(=O)OCC2CC2)C(c2ccccc2C(F)(F)F)n2ncc(C#N)c2N1 (stereo not drawn) [(7), 3-Cyano-6-cyclopropylmethyloxycarbonyl-5-methyl-7-(2-trifluoromethylphenyl)-4,7-dihydropyrazolo[1,5-a]pyrimidine]
Increase in CBF ED50 [2]: 2.0 µg
Increase in dp/dt max ED30 [3]: > 30 µg
inhibition in vivo at 0.01 mg/kg [1]: 20%
change in vivo at 0.01 mg/kg [4]: 52%

COCC(OC(=O)C1=C(C)Nc2ccnn2C1c1ccccc1C(F)(F)F)c1ccccc1 (stereo not drawn) [(8), 1-Phenyl-2-methoxyethyl 5-methyl-7-(2-trifluoromethylphenyl)-4,7-dihydropyrazolo[1,5-a]pyrimidine-6-carboxylate (β-form of diastereomer)]
change in vivo at 0.01 mg/kg [4]: 33%

CCCOC(=O)C1=C(C)Nc2ccnn2C1c1ccccc1C(F)(F)F (stereo not drawn) [(11), 5-Methyl-6-propoxycarbonyl-7-(2-trifluoromethylphenyl)-4,7-dihydropyrazolo[1,5-a]pyrimidine]
change in vivo at 0.01 mg/kg [4]: 36%
[K+]o at which conversion of Ca2+-agonistic to Ca2+-antagonistic action occurred [6]: 22 mM

CC1=C(C(=O)OCC(C)C)C(c2ccccc2C(F)(F)F)n2nccc2N1 (stereo not drawn) [(12), 6-Isobutoxycarbonyl-5-methyl-7-(2-trifluoromethylphenyl)-4,7-dihydropyrazolo[1,5-a]pyrimidine]
Increase in CBF ED50 [2]: 1.8 µg
Increase in dp/dt max ED30 [3]: > 300 µg

CCOC(=O)C1=C(C)Nc2c(C#N)cnn2C1c1ccccc1C(F)(F)F (stereo not drawn) [(14), 3-Cyano-6-ethoxycarbonyl-5-methyl-7-(2-trifluoromethylphenyl)-4,7-dihydropyrazolo[1,5-a]pyrimidine]
Increase in CBF ED50 [2]: 1.6 µg
Increase in dp/dt max ED30 [3]: > 100 µg
inhibition in vivo at 0.01 mg/kg [1]: 20%
change in vivo at 0.01 mg/kg [4]: 54%

CCOC(=O)C1=C(C)Nc2c(Cl)cnn2C1c1ccccc1C(F)(F)F (stereo not drawn) [(16), 3-Chloro-6-ethoxycarbonyl-5-methyl-7-(2-trifluoromethylphenyl)-4,7-dihydropyrazolo[1,5-a]pyrimidine]
inhibition in vivo at 0.3 mg/kg ([1]; 300 μg/kg): 29%
change in vivo at 0.3 mg/kg [4]: 113%

CCOC(=O)C1=C(C)Nc2ccnn2C1c1ccccc1SCc1ccccc1 (stereo not drawn) [(17), 7-(2-Benzylthiophenyl)-6-ethoxycarbonyl-5-methyl-4,7-dihydropyrazolo[1,5-a]pyrimidine]
Decrease in CBF ED-50 [2]: 1.1 µg
Increase in dp/dt max ED30 [3]: 6.7 µg

CCOC(=O)C1=C(C)Nc2ccnn2C1c1ccccc1OC(F)F (stereo not drawn) [(18), 7-(2-Difluoromethoxyphenyl)-6-ethoxycarbonyl-5-methyl-4,7-dihydropyrazolo[1,5-a]pyrimidine]
change in vivo at 0.3 mg/kg [4]: 89%
change in vivo at 0.3 mg/kg [5]: 20%

COc1ccc(CCOC(=O)C2=C(C)Nc3ccnn3C2c2ccccc2C(F)(F)F)cc1OC (stereo not drawn) [(19), 6-[2-(3,4-Dimethoxyphenyl)ethyl]oxycarbonyl-5-methyl-7-(2-trifluoromethylphenyl)-4,7-dihydropyrazolo[1,5-a]pyrimidine]
Decrease in CBF ED-50 [2]: 1.2 µg
Increase in dp/dt max ED30 [3]: 14 µg

CCOC(=O)C1=C(C)Nc2nnnn2C1c1ccccc1C(F)(F)F (stereo not drawn) [(21), 6-Ethoxycarbonyl-5-methyl-7-(2-trifluoromethylphenyl)-4,7-dihydrotetrazolo[1,5-a]pyrimidine]
change in vivo at 0.3 mg/kg [4]: 63%

CCC(CC)OC(=O)C1=C(C)Nc2ccnn2C1c1ccccc1C(F)(F)F (stereo not drawn) [(22), 5-Methyl-6-(3-pentyloxycarbonyl)-7-(2-trifluoromethylphenyl)-4,7-dihydropyrazolo[1,5-a]pyrimidine]
change in vivo at 0.3 mg/kg [4]: 107%
change in vivo at 0.3 mg/kg [5]: 24%

CCOC(=O)C1=C(CF)Nc2ccnn2C1c1ccccc1C(F)(F)F (stereo not drawn) [(24), 6-Ethoxycarbonyl-5-fluoromethyl-7-(2-trifluoromethylphenyl)-4,7-dihydropyrazolo[1,5-a]pyrimidine]
Decrease in CBF ED-50 [2]: > 300 µg
Increase in dp/dt max ED30 [3]: 86 µg

CC1=C(C(=O)OC(C)C)C(c2ccccc2Cl)n2nccc2N1 (stereo not drawn) [(26), 7-(2-Chlorophenyl)-6-isopropoxycarbonyl-5-methyl-4,7-dihydropyrazolo[1,5-a]pyrimidine]
Increase in CBF ED50 [2]: 13 µg
Increase in dp/dt max ED30 [3]: 133 µg
change in vivo at 0.03 mg/kg [4]: 33%

CC1=C(C(=O)OC(C)C)C(c2cccc(Cl)c2Cl)n2nccc2N1 (stereo not drawn) [(28), 7-(2,3-Dichlorophenyl)-6-isopropoxycarbonyl-5-methyl-4,7-dihydropyrazolo[1,5-a]pyrimidine]
inhibition in vivo at 0.03 mg/kg [1]: 29%
change in vivo at 0.03 mg/kg [4]: 53%

CC1=C(C(=O)OC(C)C)C(c2ccccc2F)n2ncc(C#N)c2N1 (stereo not drawn) [(29), 3-Cyano-7-(2-fluorophenyl)-6-isopropoxycarbonyl-5-methyl-4,7-dihydropyrazolo[1,5-a]pyrimidine]
Increase in CBF ED50 [2]: 1.0 µg
Increase in dp/dt max ED30 [3]: > 30 µg

CC1=C(C(=O)OC(C)C)C(c2cccc(F)c2F)n2nccc2N1 (stereo not drawn) [(31), 7-(2,3-Difluorophenyl)-6-isopropoxycarbonyl-5-methyl-4,7-dihydropyrazolo[1,5-a]pyrimidine]
Increase in CBF ED50 [2]: 1.4 µg
Increase in dp/dt max ED30 [3]: > 30 µg

CC1=C(C(=O)OC(C)C)C(c2cc(F)ccc2F)n2nccc2N1 (stereo not drawn) [(32), 7-(2,5-Difluorophenyl)-6-isopropoxycarbonyl-5-methyl-4,7-dihydropyrazolo[1,5-a]pyrimidine]
Increase in CBF ED50 [2]: 8 µg
Increase in dp/dt max ED30 [3]: 93 µg

CC1=C(C(=O)OC(C)C)C(c2cccc(F)c2Cl)n2nccc2N1 (stereo not drawn) [(33), 7-(2-Chloro-3-fluorophenyl)-6-isopropoxycarbonyl-5-methyl-4,7-dihydropyrazolo[1,5-a]pyrimidine]
Increase in CBF ED50 [2]: 1.4 µg
Increase in dp/dt max ED30 [3]: > 30 µg

CC1=C(C(=O)OC(CN2CCCCC2)c2ccccc2)C(c2cccc([N+](=O)[O-])c2)n2ccnc2N1 (stereo not drawn) [(34), 1-Phenyl-2-piperidinoethyl 7-methyl-5-(3-nitrophenyl)-5,8-dihydroimidazo[1,2-a]pyrimidine-6-carboxylate (β-form of diastereomer)]
Increase in CBF ED50 [2]: 10.0 µg
Increase in dp/dt max ED30 [3]: > 30 µg

CC1=C(C(=O)OC(C)C)C(c2cccc(F)c2F)n2ncc(C#N)c2N1 (stereo not drawn) [(35), 3-Cyano-7-(2,3-difluorophenyl)-6-isopropoxycarbonyl-5-methyl-4,7-dihydropyrazolo[1,5-a]pyrimidine]
Increase in CBF ED50 [2]: 0.28 µg
Increase in dp/dt max ED30 [3]: > 30 µg

From patent US4918074A, “Polyazaheterocycle compounds” (Yoshitomi Pharmaceutical Industries, Ltd., priority 1984, dated 1990)
